# Legend:
# Type in all cases: functional
# [1] = test system: Odoribacter splanchnicus; assay: Antibacterial activity against Bacteroides splanchnicus by CLSI M11-A6 agar dilution method
# [2] = test system: Clostridium hathewayi; assay: Antibacterial activity against Clostridium hathewayi by CLSI M11-A6 agar dilution method; conditions: Hungatella hathewayi
# [3] = test system: Hoylesella loescheii; assay: Antibacterial activity against Prevotella loescheii by CLSI M11-A6 agar dilution method
# [4] = test system: Flavonifractor plautii; assay: Antibacterial activity against Clostridium orbiscindens by CLSI M11-A6 agar dilution method
# [5] = test system: Clostridium perfringens; assay: Antibacterial activity against Clostridium perfringens by CLSI M11-A6 agar dilution method
# [6] = test system: Holdemania filiformis; assay: Antibacterial activity against Holdemania filiformis by CLSI M11-A6 agar dilution method
# [7] = test system: Bacteroides fragilis; assay: Antibacterial activity against Bacteroides fragilis by CLSI M11-A6 agar dilution method
# [8] = test system: Ruminococcus albus; assay: Antibacterial activity against Ruminococcus albus by CLSI M11-A6 agar dilution method; conditions: Hominimerdicola alba
# [9] = test system: Clostridium paraputrificum; assay: Antibacterial activity against Clostridium paraputrificum by CLSI M11-A6 agar dilution method
# [10] = test system: Clostridium; assay: Antibacterial activity against Clostridium hypermegas by CLSI M11-A6 agar dilution method
# [11] = test system: Prevotella nigrescens; assay: Antibacterial activity against Prevotella nigrescens by CLSI M11-A6 agar dilution method
# [12] = test system: Prevotella intermedia; assay: Antibacterial activity against Prevotella P intermedia by CLSI M11-A6 agar dilution method
# [13] = test system: Clostridioides difficile; assay: Antibacterial activity against Clostridium difficile by CLSI M11-A6 agar dilution method
# [14] = test system: Propionibacterium propionicum; assay: Antibacterial activity against Propionibacterium propionicus by CLSI M11-A6 agar dilution method; conditions: Arachnia propionica
# [15] = test system: Paraclostridium bifermentans; assay: Antibacterial activity against Clostridium bifermentans by CLSI M11-A6 agar dilution method
# [16] = test system: Clostridium butyricum; assay: Antibacterial activity against Clostridium butyricum by CLSI M11-A6 agar dilution method
# [17] = test system: Fusobacterium varium; assay: Antibacterial activity against Fusobacterium varium by CLSI M11-A6 agar dilution method
# [18] = test system: Ruminococcus sp.; assay: Antibacterial activity against Ruminococcus sp. by CLSI M11-A6 agar dilution method
# [19] = test system: Prevotella intermedia; assay: Antibacterial activity against Prevotella intermedia by CLSI M11-A6 agar dilution method
# [20] = test system: Prevotella disiens; assay: Antibacterial activity against Prevotella P disiens by CLSI M11-A6 agar dilution method
# [21] = test system: Thomasclavelia ramosa; assay: Antibacterial activity against Clostridium ramosum by CLSI M11-A6 agar dilution method
# [22] = test system: Blautia producta; assay: Antibacterial activity against Ruminococcus productus by CLSI M11-A6 agar dilution method
# [23] = test system: Collinsella aerofaciens; assay: Antibacterial activity against Colinsella aerofaciens by CLSI M11-A6 agar dilution method
# [24] = test system: Peptoniphilus asaccharolyticus; assay: Antibacterial activity against Peptoniphilus asaccharolyticus by CLSI M11-A6 agar dilution method
# [25] = test system: Prevotella melaninogenica; assay: Antibacterial activity against Prevotella melaninogenica by CLSI M11-A6 agar dilution method
# [26] = test system: Peptostreptococcus anaerobius; assay: Antibacterial activity against Peptostreptococcus anaerobius by CLSI M11-A6 agar dilution method
# [27] = test system: Clostridium bolteae; assay: Antibacterial activity against Clostridium bolteae by CLSI M11-A6 agar dilution method; conditions: Enterocloster bolteae
# [28] = test system: Parvimonas micra; assay: Antibacterial activity against Peptostreptococcus micros by CLSI M11-A6 agar dilution method
# [29] = test system: Prevotella bivia; assay: Antibacterial activity against Prevotella bivia by CLSI M11-A6 agar dilution method
# [30] = test system: Streptococcus constellatus; assay: Antibacterial activity against Streptococcus constellatus by CLSI M11-A6 agar dilution method
# [31] = test system: Clostridium celerecrescens; assay: Antibacterial activity against Clostridium celerecrescens by CLSI M11-A6 agar dilution method; conditions: Lacrimispora celerecrescens
# [32] = test system: Eggerthella lenta; assay: Antibacterial activity against Eggerthella lenta by CLSI M11-A6 agar dilution method
# [33] = test system: Bacteroides ovatus; assay: Antibacterial activity against Bacteroides ovatus by CLSI M11-A6 agar dilution method
# [34] = test system: Clostridium sporogenes; assay: Antibacterial activity against Clostridium sporogenes by CLSI M11-A6 agar dilution method
# [35] = test system: Clostridium tertium; assay: Antibacterial activity against Clostridium tertium by CLSI M11-A6 agar dilution method
# [36] = test system: Sutterella wadsworthensis; assay: Antibacterial activity against Sutterella wadsworthensis by CLSI M11-A6 agar dilution method
# [37] = test system: Prevotella oris; assay: Antibacterial activity against Prevotella oris by CLSI M11-A6 agar dilution method; conditions: Segatella oris
# [38] = test system: Streptococcus intermedius; assay: Antibacterial activity against Streptococcus intermedius by CLSI M11-A6 agar dilution method
# [39] = test system: Phocaeicola vulgatus; assay: Antibacterial activity against Bacteroides vulgatus by CLSI M11-A6 agar dilution method
compound,measurement,setting,value
CCCCCCCCCC(=O)N[C@@H](Cc1c[nH]c2ccccc12)C(=O)N[C@H](CC(N)=O)C(=O)N[C@@H](CC(=O)O)C(=O)N[C@@H]1C(=O)NCC(=O)N[C@@H](CCCN)C(=O)N[C@@H](CC(=O)O)C(=O)N[C@H](C)C(=O)N[C@@H](CC(=O)O)C(=O)NCC(=O)N[C@H](CO)C(=O)N[C@@H]([C@H](C)CC(=O)O)C(=O)N[C@@H](CC(=O)c2ccccc2N)C(=O)O[C@@H]1C,MIC,[1],> 128 µg/mL
same,MIC50,[1],> 128 µg/mL
same,MIC90,[1],> 128 µg/mL
same,MIC50,[2],1 µg/mL
same,MIC90,[2],2 µg/mL
same,MIC,[3],> 128 µg/mL
same,MIC50,[3],> 128 µg/mL
same,MIC90,[3],> 128 µg/mL
same,MIC50,[4],1 µg/mL
same,MIC90,[4],8 µg/mL
same,MIC50,[5],0.5 µg/mL
same,MIC90,[5],1 µg/mL
same,MIC50,[6],1 µg/mL
same,MIC90,[6],32 µg/mL
same,MIC,[7],> 128 µg/mL
same,MIC50,[7],> 128 µg/mL
same,MIC90,[7],> 128 µg/mL
same,MIC50,[8],1 µg/mL
same,MIC90,[8],2 µg/mL
same,MIC50,[9],1 µg/mL
same,MIC90,[9],8 µg/mL
same,MIC50,[10],1 µg/mL
same,MIC90,[10],8 µg/mL
same,MIC,[11],> 128 µg/mL
same,MIC50,[11],> 128 µg/mL
same,MIC90,[11],> 128 µg/mL
same,MIC,[12],> 128 µg/mL
same,MIC50,[12],> 128 µg/mL
same,MIC90,[12],> 128 µg/mL
same,MIC50,[13],0.5 µg/mL
same,MIC90,[13],1 µg/mL
same,MIC50,[14],1 µg/mL
same,MIC90,[14],32 µg/mL
same,MIC50,[15],1 µg/mL
same,MIC90,[15],8 µg/mL
same,MIC50,[16],1 µg/mL
same,MIC90,[16],8 µg/mL
same,MIC,[17],> 128 µg/mL
same,MIC50,[17],> 128 µg/mL
same,MIC90,[17],> 128 µg/mL
same,MIC50,[18],1 µg/mL
same,MIC90,[18],4 µg/mL
same,MIC,[19],> 128 µg/mL
same,MIC50,[19],> 128 µg/mL
same,MIC90,[19],> 128 µg/mL
same,MIC,[20],> 128 µg/mL
same,MIC50,[20],> 128 µg/mL
same,MIC90,[20],> 128 µg/mL
same,MIC50,[21],64 µg/mL
same,MIC90,[21],64 µg/mL
same,MIC50,[22],1 µg/mL
same,MIC90,[22],2 µg/mL
same,MIC50,[23],1 µg/mL
same,MIC90,[23],32 µg/mL
same,MIC50,[24],1 µg/mL
same,MIC90,[24],4 µg/mL
same,MIC,[25],> 128 µg/mL
same,MIC50,[25],> 128 µg/mL
same,MIC90,[25],> 128 µg/mL
same,MIC50,[26],1 µg/mL
same,MIC90,[26],4 µg/mL
same,MIC50,[27],4 µg/mL
same,MIC90,[27],4 µg/mL
same,MIC50,[28],1 µg/mL
same,MIC90,[28],4 µg/mL
same,MIC,[29],> 128 µg/mL
same,MIC50,[29],> 128 µg/mL
same,MIC90,[29],> 128 µg/mL
same,MIC50,[30],2 µg/mL
same,MIC90,[30],4 µg/mL
same,MIC50,[31],1 µg/mL
same,MIC90,[31],8 µg/mL
same,MIC50,[32],1 µg/mL
same,MIC90,[32],32 µg/mL
same,MIC,[33],> 128 µg/mL
same,MIC50,[33],> 128 µg/mL
same,MIC90,[33],> 128 µg/mL
same,MIC50,[34],1 µg/mL
same,MIC90,[34],8 µg/mL
same,MIC50,[35],1 µg/mL
same,MIC90,[35],8 µg/mL
same,MIC,[36],> 128 µg/mL
same,MIC50,[36],> 128 µg/mL
same,MIC90,[36],> 128 µg/mL
same,MIC,[37],> 128 µg/mL
same,MIC50,[37],> 128 µg/mL
same,MIC90,[37],> 128 µg/mL
same,MIC50,[38],2 µg/mL
same,MIC90,[38],4 µg/mL
same,MIC,[39],> 128 µg/mL
same,MIC50,[39],> 128 µg/mL
same,MIC90,[39],> 128 µg/mL

# Reference: ChEMBL document CHEMBL1671662, “In vitro activities of telavancin and six comparator agents against anaerobic bacterial isolates” (2009)
